Assay results as given in US20240226066A1, “CARDIOPROTECTION BY AUTOPHAGY INDUCTION AND METABOLIC REPROGRAMMING” (UNIVERSITE PARIS-SACLAY, priority 2021, published 2024).

Tested on: RNVCs
Experiment: Autophagosome formation after GFP-LC3 plasmid transfection (fluorescence microscopy)
Type: cell-based, rat
Conditions: GFP-LC3 transfected RNVCs
Procedure: FIG. 4D: after transfection of the plasmid GFP-LC3, the fluorescent green GFP-LC3 spots were visualized by fluorescence microscopy and quantified with ImageJ to verify autophagosome formation. Data are presented as mean±SEM with single-factor ANOVA, and multiple Sidak comparisons. ***, p<0.001 with respect to 0.01% DMSO.
On day 0, 4×10^5 neonatal cardiomyocytes were plated overnight in laminin-coated 35 mm culture dishes (10 μg/ml). On day 1, the cells were transfected with 1 μg of GFP-LC3 plasmid using the transfection reagent Lipofectamine® 2000 (1 μg of GFP-LC3 corresponds to 2.5 μl of transfection reagent), for 48 h, then the green fluorescence was detected with a Leica confocal microscope (SP5). The analyses were carried out with the ImageJ program (Wayne Rasband, National Institutes of Health, USA).
Next, the hypothesis that the compounds could protect cardiac cells by activating autophagy, a catabolic process conserved in evolution that involves the degradation of damaged cytoplasmic components, was formulated. […] Then, the cells were treated with the hits and with H2O2 for 2 hours and their survival was analyzed 4 hours later by measuring LDH release (FIGS. 4B, 4C). […] In order to confirm the induction of autophagy by another approach, the RNVCs were transfected with a GFP-LC3 plasmid and the formation of the autophagosome was monitored 24 hours later. […]

O=C1NC(c2ccccc2)=N/C1=C\c1cc2ccccc2c2ccccc12 [SG6163F]
formation of autophagosomes: capable of causing the formation of autophagosomes
